Measurements published in patent US20050130252A1, “Stabilized susceptibility tests of aerobic pathogens” (Wyeth Holdings Corporation, priority 2003, published 2005).
≈ marks a conversion by molar mass, not a printed value. Where two headings read alike, the source gives them in different places.

Columns and labels:
Assay in all cases: Broth microdilution MIC
S. aureus ATCC 29213 = assay type: cell-based, Staphylococcus aureus; details: S. aureus ATCC 29213
Protocol: (§1) The process for preparing susceptibility test medium are the following steps: • a. Preparing Mueller Hinton Broth II medium by adding 22 grams powdered media to 1.0 liter distilled water; • b. Autoclaving (121° C., 15 psi, 15 minutes) and cooling the medium; • c. Adding Oxyrase® up to about 10% final volume and keeping at 35-37° C. in an incubator for 30 minutes; • d. Adding about 50 μL to each well of a 96 well microtiter plate; • e. Weighing drug and adding broth to drug to bring up to about (standard 128 μg/ml); • f. Adding 50 μL of the drug to the first column of the titer plate; • g. Diluting by two-fold serial diluting across or down the plate. • h. Preparing a Prompt™ inoculum at 10^8 CFU/ml; • i. Diluting inoculum 1:100 in the broth at […] in 9.9 ml (1:100) is 10^6 colony forming units (CFU) forming the adjusted inoculum; • j. Adding 50 μL of the adjusted inoculum to the wells of the microtiter plate; • k. Incubating the plates at 35-37° C. for 18-22 hours; and • l. Reading, with the unaided eye, the MIC.
(§2) The in vitro activities of tigecycline and control antibiotics were determined by the broth microdilution method as recommended by the NCCLS. (National Committee for Clinical Laboratory Standards, 2003. Methods for Dilution Antimicrobial Susceptibility Tests for Bacteria That Grow Aerobically; Approved Standards: M7-A6, Sixth ed, vol. 23., National Committee for Clinical Laboratory Standards Wayne, Pa.) was used for the standard procedures. MBH with 5% lysed horse blood was used for testing S. pneumoniae and Haemophilus Test Medium was used for testing H. influenzae. Oxyrase® (Oxyrase Inc, Mansfield, Ohio) was used according to the manufacturer's instructions by adding 1 ml of Oxyrase® to 50 ml of media. Media age studies were performed by preparing MHB in multiple flasks, then storing the media under various conditions. MICs were usually performed in duplicate on each day of testing. Storage under anaerobic conditions was conducted in an anaerobic chamber (MACS MG 1000, Don Whitley Scientific LTD). The pH of the media was determined by pH meter (Corning 430). A comparison of the in vitro activity of tigecycline by agar and broth dilution methodolgies with and without Oxyrase® against clinical isolates is shown in Table 1.

[1] = tested on: Enterococcus faecalis GC2267 tet(L) + (M) + (S); assay type: cell-based; details: for In Vitro Activity of Tigecycline: Broth, E. faecalis GC2267 tet(L) + (M) + (S); for MIC: Enterococcus faecalis, read-out: Minimal Inhibitory Concentration
Protocol: as §1, §2

[2] = tested on: Escherichia coli GC1073 tet(B) wt; assay type: cell-based; details: for In Vitro Activity of Tigecycline: Broth, E. coli GC1073 tet(B) wt
Protocol: as §1, §2

[3] = tested on: Escherichia coli GC2270 tet(M); assay type: cell-based; details: for MIC: Escherichia coli, read-out: Minimal Inhibitory Concentration
Protocol: as §1, §2

[4] = tested on: Escherichia coli GC4559 parent GC4560; assay type: cell-based; details: E. coli GC4559; for In Vitro Activity of Tigecycline: Broth; for MIC: Escherichia coli, read-out: Minimal Inhibitory Concentration
Protocol: as §1, §2

S. pneumoniae ATCC 49619 = assay type: cell-based
Protocol: as §1, §2

[5] = tested on: S. pyogenes GC4563 (Clinical); assay type: cell-based; details: Streptococcus pyogenes, read-out: Minimal Inhibitory Concentration
Protocol: as §1, §2

[6] = tested on: Staphylococcus aureus GC1079 tet(K); assay type: cell-based
Protocol: as §1, §2

[7] = Table 8, Mueller Hinton Broth + Oxyrase, n = 240
[8] = Table 8, Mueller Hinton Broth, n = 320
[9] = Table 9, Mueller Hinton Broth + Oxyrase, n = 29
[10] = Table 9, Mueller Hinton Broth, n = 131
[11] = 336 h, Aged Media (two weeks at RT)

**Q.** What does the source list for `CN(C)c1cc(NC(=O)CNC(C)(C)C)c(O)c2c1C[C@H]1C[C@H]3[C@H](N(C)C)C(O)=C(C(N)=O)C(=O)[C@@]3(O)C(O)=C1C2=O` [Tigecycline, tigecycline]?
**A.** Number of Occurrences of MIC 0.25 ug/ml (S. aureus ATCC 29213; [7]): 22; Number of Occurrences of MIC 0.5 ug/ml (S. aureus ATCC 29213; [7]): 1; Number of Occurrences of MIC 0.12 ug/ml (S. aureus ATCC 29213; [8]): 1; Number of Occurrences of MIC 0.25 ug/ml (S. aureus ATCC 29213; [8]): 219; Number of Occurrences of MIC 0.5 ug/ml (S. aureus ATCC 29213; [8]): 29; Number of Occurrences of MIC 1 ug/ml (S. aureus ATCC 29213; [8]): 62; Number of Occurrences of MIC 2 ug/ml (S. aureus ATCC 29213; [8]): 9; Number of Occurrences of MIC 0.06 ug/ml (S. aureus ATCC 29213; [9]): 2; Number of Occurrences of MIC 0.12 ug/ml (S. aureus ATCC 29213; [9]): 15; Number of Occurrences of MIC 0.25 ug/ml (S. aureus ATCC 29213; [9]): 12; Number of Occurrences of MIC 0.06 ug/ml (S. aureus ATCC 29213; [10]): 1; Number of Occurrences of MIC 0.12 ug/ml (S. aureus ATCC 29213; [10]): 27; Number of Occurrences of MIC 0.25 ug/ml (S. aureus ATCC 29213; [10]): 78; Number of Occurrences of MIC 0.5 ug/ml (S. aureus ATCC 29213; [10]): 25; In Vitro Activity of Tigecycline ([1]; Oxyrase (2%)): 0.12; In Vitro Activity of Tigecycline ([1]; no Oxyrase): 0.50; MIC ([1]; 336 h): 0.25 µg/mL (≈ 0.427 µM); MIC [1]: 0.12 µg/mL (≈ 0.205 µM); In Vitro Activity of Tigecycline ([2]; Oxyrase (2%)): 0.12; In Vitro Activity of Tigecycline ([2]; no Oxyrase): 0.50; MIC ([2]; Escherichia coli, read-out: Minimal Inhibitory Concentration): 0.12 µg/mL (≈ 0.205 µM); In Vitro Activity of Tigecycline ([3]; Broth, no Oxyrase, E. coli GC2270 tet(M)): 0.50; MIC ([3]; 336 h): 0.25 µg/mL (≈ 0.427 µM); MIC [3]: 0.06 µg/mL (≈ 0.102 µM); In Vitro Activity of Tigecycline ([4]; Oxyrase (2%)): 0.12; In Vitro Activity of Tigecycline ([4]; no Oxyrase): 0.50; MIC [4, 11]: 0.12 µg/mL (≈ 0.205 µM); MIC ([4]; Fresh Media): 0.06 µg/mL (≈ 0.102 µM); Number of Occurrences of MIC 0.004 ug/ml (S. pneumoniae ATCC 49619; [7]): 6; Number of Occurrences of MIC 0.008 ug/ml (S. pneumoniae ATCC 49619; [7]): 73; Number of Occurrences of MIC 0.016 ug/ml (S. pneumoniae ATCC 49619; [7]): 137; Number of Occurrences of MIC 0.03 ug/ml (S. pneumoniae ATCC 49619; [7]): 21; Number of Occurrences of MIC 0.06 ug/ml (S. pneumoniae ATCC 49619; [7]): 3; Number of Occurrences of MIC 0.016 ug/ml (S. pneumoniae ATCC 49619; [8]): 1; Number of Occurrences of MIC 0.03 ug/ml (S. pneumoniae ATCC 49619; [8]): 54; Number of Occurrences of MIC 0.06 ug/ml (S. pneumoniae ATCC 49619; [8]): 188; Number of Occurrences of MIC 0.12 ug/ml (S. pneumoniae ATCC 49619; [8]): 48; Number of Occurrences of MIC 0.25 ug/ml (S. pneumoniae ATCC 49619; [8]): 29; MIC [5, 11]: 0.03 µg/mL (≈ 0.0512 µM); MIC ([5]; Fresh Media): < 0.008 µg/mL; In Vitro Activity of Tigecycline ([6]; Broth, no Oxyrase, S. aureus GC1079 tet(K)): 0.50; MIC ([6]; Staphylococcus aureus, read-out: Minimal Inhibitory Concentration): 0.25 µg/mL (≈ 0.427 µM)
